Source: patent US20200024278A1, “COMPOSITION COMPRISING ANTIBIOTIC COMPOUND AND AN HETEROCYCLIC COMPOUND AND THEIR USE IN PREVENTING OR TREATING BACTERIAL INFECTIONS” (MUTABILIS, priority 2016, published 2020)
Read-outs that look alike come from different tables or passages of the source.

How the values were obtained:
Experiment in all cases: MIC, broth microdilution (CLSI), substance alone or ATB combined with compound at 4 or 8 μg/mL
PAE UFR48 = format: cell-based, P. aeruginosa; details: PAE UFR48
Method in brief: (§1)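 Antibiotic MICs were determined in presence of fixed compound at 4 or 8 μg/mL, and compound MICs alone, by visual growth inhibition. Inoculum 5·10^5 CFU/mL in ca-MHB, incubated 35 °C for 16-20 h per CLSI-M7-A7. Glucose-6-phosphate (25 μg/ml) added when fosfomycin was tested.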

PAE 105250 = format: cell-based, P. aeruginosa; details: PAE 105250
Method in brief: as §1

PAE UFR90 = format: cell-based, P. aeruginosa; details: PAE UFR90
Method in brief: as §1

ECL P99 = format: cell-based, E. cloacae; details: ECL P99; for MIC: Enterobacter cloacae
Method in brief: as §1

SPN 49619 = format: cell-based, S. pneumoniae; details: SPN 49619
Method in brief: as §1

ECO 190317 = format: cell-based, E. coli; details: ECO 190317
Method in brief: as §1

Structure (SMILES): COCC1=C(C(=O)O)N2C(=O)[C@@H](NC(=O)/C(=N\OC)c3csc(N)n3)[C@H]2SC1 [POD, Cefpodoxime, reference compound]
- MIC ATB combined with Example 1 @8 μg/ml (PAE UFR48; with Example 1 at 8 μg/ml): <0.031 µg/mL
- MIC ATB combined with Example 7 @8 μgml (PAE UFR48; with Example 7 at 8 μg/ml): >32 µg/mL
- MIC ATB combined with Example 9 @4 μg/ml (PAE UFR48; with Example 9 at 4 μg/ml): >32 µg/mL
- MIC ATB combined with Example 11 @8 μg/ml (PAE UFR48; with Example 11 at 8 μg/ml): >32 µg/mL
- MIC ATB combined with Example 12 @8 μg/ml (PAE UFR48; with Example 12 at 8 μg/ml): >32 µg/mL
- MIC ATB combined with Example 13 @8 μg/ml (PAE UFR48; with Example 13 at 8 μg/ml): >32 µg/mL
- MIC ATB combined with Example 14 @8 μg/ml (PAE UFR48; with Example 14 at 8 μg/ml): >32 µg/mL
- MIC ATB combined with Example 15 @4 μgml (PAE UFR48; with Example 15 at 4 μg/ml): >32 µg/mL
- MIC ATB combined with Example 16 @4 μg/ml (PAE UFR48; with Example 16 at 4 μg/ml): >32 µg/mL
- MIC ATB combined with Example 1 @8 μg/ml (PAE 105250; with Example 1 at 8 μg/ml): 0.125 µg/mL
- MIC ATB combined with Example 7 @8 μgml (PAE 105250; with Example 7 at 8 μg/ml): >32 µg/mL
- MIC ATB combined with Example 9 @4 μg/ml (PAE 105250; with Example 9 at 4 μg/ml): >32 µg/mL
- MIC ATB combined with Example 11 @8 μg/ml (PAE 105250; with Example 11 at 8 μg/ml): >32 µg/mL
- MIC ATB combined with Example 12 @8 μg/ml (PAE 105250; with Example 12 at 8 μg/ml): >32 µg/mL
- MIC ATB combined with Example 13 @8 μg/ml (PAE 105250; with Example 13 at 8 μg/ml): >32 µg/mL
- MIC ATB combined with Example 14 @8 μg/ml (PAE 105250; with Example 14 at 8 μg/ml): >32 µg/mL
- MIC ATB combined with Example 15 @4 μgml (PAE 105250; with Example 15 at 4 μg/ml): >32 µg/mL
- MIC ATB combined with Example 16 @4 μg/ml (PAE 105250; with Example 16 at 4 μg/ml): >32 µg/mL
- MIC (PAE 105250; Pseudomonas aeruginosa, antibiotic alone, read-out: MIC ATB alone): > 512 µg/mL
- MIC ATB combined with Example 1 @8 μg/ml (PAE UFR90; with Example 1 at 8 μg/ml): <0.031 µg/mL
- MIC ATB combined with Example 7 @8 μgml (PAE UFR90; with Example 7 at 8 μg/ml): >32 µg/mL
- MIC ATB combined with Example 9 @4 μg/ml (PAE UFR90; with Example 9 at 4 μg/ml): >32 µg/mL
- MIC ATB combined with Example 11 @8 μg/ml (PAE UFR90; with Example 11 at 8 μg/ml): >32 µg/mL
- MIC ATB combined with Example 12 @8 μg/ml (PAE UFR90; with Example 12 at 8 μg/ml): >32 µg/mL
- MIC ATB combined with Example 13 @8 μg/ml (PAE UFR90; with Example 13 at 8 μg/ml): >32 µg/mL
- MIC ATB combined with Example 14 @8 μg/ml (PAE UFR90; with Example 14 at 8 μg/ml): >32 µg/mL
- MIC ATB combined with Example 15 @4 μgml (PAE UFR90; with Example 15 at 4 μg/ml): >32 µg/mL
- MIC ATB combined with Example 16 @4 μg/ml (PAE UFR90; with Example 16 at 4 μg/ml): >32 µg/mL
- MIC ATB combined with Example 1 @8 μg/ml (ECL P99; with Example 1 at 8 μg/ml): <=0.031 μg/mL
- MIC ATB combined with Example 7 @8 μgml (ECL P99; with Example 7 at 8 μg/ml): 16 µg/mL
- MIC ATB combined with Example 9 @4 μg/ml (ECL P99; with Example 9 at 4 μg/ml): <0.031 µg/mL
- MIC ATB combined with Example 11 @8 μg/ml (ECL P99; with Example 11 at 8 μg/ml): <0.031 µg/mL
- MIC ATB combined with Example 12 @8 μg/ml (ECL P99; with Example 12 at 8 μg/ml): <0.031 µg/mL
- MIC ATB combined with Example 13 @8 μg/ml (ECL P99; with Example 13 at 8 μg/ml): 4 µg/mL
- MIC ATB combined with Example 14 @8 μg/ml (ECL P99; with Example 14 at 8 μg/ml): <0.031 µg/mL
- MIC ATB combined with Example 15 @4 μgml (ECL P99; with Example 15 at 4 μg/ml): <0.031 µg/mL
- MIC ATB combined with Example 16 @4 μg/ml (ECL P99; with Example 16 at 4 μg/ml): <0.031 µg/mL
- MIC (ECL P99; antibiotic alone, read-out: MIC ATB alone): > 512 µg/mL
- MIC (ECL P99; substance alone, read-out: MIC): > 512 µg/mL
- MIC ATB combined with Example 1 @8 μg/ml (SPN 49619; with Example 1 at 8 μg/ml): 0.063 µg/mL
- MIC ATB combined with Example 7 @8 μgml (SPN 49619; with Example 7 at 8 μg/ml): 0.063 µg/mL
- MIC ATB combined with Example 9 @4 μg/ml (SPN 49619; with Example 9 at 4 μg/ml): <0.031 µg/mL
- MIC ATB combined with Example 11 @8 μg/ml (SPN 49619; with Example 11 at 8 μg/ml): <=0.031 μg/mL
- MIC ATB combined with Example 12 @8 μg/ml (SPN 49619; with Example 12 at 8 μg/ml): <0.031 µg/mL
- MIC ATB combined with Example 13 @8 μg/ml (SPN 49619; with Example 13 at 8 μg/ml): 0.063 µg/mL
- MIC ATB combined with Example 14 @8 μg/ml (SPN 49619; with Example 14 at 8 μg/ml): <0.031 µg/mL
- MIC ATB combined with Example 15 @4 μgml (SPN 49619; with Example 15 at 4 μg/ml): <=0.031 μg/mL
- MIC ATB combined with Example 16 @4 μg/ml (SPN 49619; with Example 16 at 4 μg/ml): <0.031 µg/mL
- MIC (SPN 49619; Streptococcus pneumoniae, antibiotic alone, read-out: MIC ATB alone): 0.063 µg/mL
- MIC ATB combined with Example 1 @8 μg/ml (ECO 190317; with Example 1 at 8 μg/ml): <0.031 µg/mL
- MIC ATB combined with Example 7 @8 μgml (ECO 190317; with Example 7 at 8 μg/ml): <0.031 µg/mL
- MIC ATB combined with Example 9 @4 μg/ml (ECO 190317; with Example 9 at 4 μg/ml): <0.031 µg/mL
- MIC ATB combined with Example 11 @8 μg/ml (ECO 190317; with Example 11 at 8 μg/ml): <0.031 µg/mL
- MIC ATB combined with Example 12 @8 μg/ml (ECO 190317; with Example 12 at 8 μg/ml): <0.031 µg/mL
- MIC ATB combined with Example 13 @8 μg/ml (ECO 190317; with Example 13 at 8 μg/ml): <0.031 µg/mL
- MIC ATB combined with Example 14 @8 μg/ml (ECO 190317; with Example 14 at 8 μg/ml): <0.031 µg/mL
